Reference: patent US20110033850A1, “COMPOSITIONS AND METHODS FOR THE IDENTIFICATION OF INHIBITORS OF RETROVIRAL INFECTION” (priority 2007, published 2011)

Tested on: HIV
Assay: anti-HIV activity in freshly harvested PBMC cells (secondary HIV assay)
Type: cell-based
Method: These compounds were analyzed for anti-HIV activity in freshly harvested PBMC cells. Of the 30 tested compounds, 15 were active at a concentration of less than 100 ˜M (the highest tested concentration). Of these 15 compounds, 9 were […] to the PBMC cells at the 100 ˜M concentration; thus, an absolute conclusion regarding the differential toxicity to HIV and PBMC cells cannot be drawn with these 9 compounds. […]

Structure (SMILES) | anti-HIV activity [µM]
CN(C)c1cccc2c(C=O)ccc(N(C)C)c12 | 0.022
O=C1c2ccccc2C(=O)c2c1nc1ccccn21 [naphtho[2′,3′,4,5]imidazo[1,2-a]pyridine-6,11-dione] | 0.63
